# US20150344444A1, “BET-PROTEIN-INHIBITING DIHYDROXYQUINOXALINONES” (BAYER PHARMA AKTIENGESELLSCHAFT, priority 2012, published 2015)
# Columns and labels:
# [1] = system: B16F10 cells; test: B16F10 cell proliferation assay (alamarBlue); assay type: cell-based; conditions: B16-F10; inhibition of cell proliferation, 96 hours, mouse melanoma cell line
# Experimental: In accordance with the invention, the ability of the substances to inhibit cell proliferation was determined Cell viability was determined by means of the alamarBlue® reagent (Invitrogen) in a Victor X3 Multilabel Reader (Perkin Elmer). The excitation wavelength was 530 nm and the emission wavelength […].
# The B16F10 cells (ATCC, CRL-6475) were sown at a concentration of 300-500 cells/well in 100 μl of growth medium (DMEM with phenol red, 10% FCS) on 96-well microtitre plates.
# After overnight incubation at 37° C., the fluorescence values were determined (CI values). Then the plates were treated with various substance dilutions (1E-5 M, 3E-6 M, 1E-6 M, 3E-7 M, 1E-7 M, 3E-8 M, 1E-8 M) and incubated at 37° C. over 96 hours (MOLM-13, B16F10 cells) or 120 hours (MOLP-8 cells). Subsequently, the fluorescence values were determined (CO values). For the data analysis, the CI values were subtracted from the CO values and the results were compared between cells which had been treated with various dilutions of the substance or only with buffer solution. The IC50 values (substance concentration needed for 50% inhibition of cell proliferation) were calculated therefrom.
# B16F10 mouse melanoma cell line
# [2] = molecular target: T1, BRD4 Bromo Domain 2 [BRD4(2)] (Homo sapiens, UniProt O60885); test: BRD4(2)/acetylated peptide H4 binding assay (TR-FRET); conditions: inhibition of interaction between His6-tagged BRD4(2) (amino acids 357-445) and acetylated histone H4 peptide
# T1 construct: N-terminally His6-tagged BRD4(2) (amino acids 357-445); made in house; host or cells: E. coli
# Description: Protein-Protein Interaction Assay: BRD4/Acetylated Peptide H4 Binding Assay
# 2. Assay Description for BRD4 Bromo Domain 2 [BRD4(2)]
# To assess the BRD4(2) binding strength of the substances described in this application, the ability thereof to inhibit the interaction between BRD4(2) and acetylated histone H4 in a dose-dependent manner was quantified.
# For this purpose, a time-resolved fluorescence resonance energy transfer (TR-FRET) assay was used, which measures the binding between N-terminally His6-tagged BRD4(2) (amino acids 357-445) and a synthetic acetylated histone H4 (Ac-H4) peptide with sequence SGRGK(Ac)GGK(Ac)GLGK(Ac)GGAK(Ac)RHRKVLRDNGSGSK-biotin. The recombinant BRD4(2) protein produced in house according to Filippakopoulos et al., Cell, 2012, 149:214-231 was expressed in E. coli and purified by means of (Ni-NTA) affinity and (Sephadex G-75) size exclusion chromatography. The Ac-H4 peptide can be purchased, for example, from Biosyntan (Berlin, Germany).
# In the assay, typically 11 different concentrations of each substance (0.1 nM, 0.33 nM, 1.1 nM, 3.8 nM, 13 nM, 44 nM, 0.15 μM, 0.51 μM, 1.7 μM, 5.9 μM and 20 μM) were analysed as duplicates on the same microtitre plate. For this purpose, 100-fold concentrated solutions in DMSO were prepared by serial dilutions (1:3.4) of a 2 mM stock solution into a clear, 384-well microtitre plate (Greiner Bio-One, Frickenhausen, Germany). From this, 50 nl were transferred into a black test plate (Greiner Bio-One, Frickenhausen, Germany). The test was started by the addition of 2 μl of a 2.5-fold concentrated BRD4(2) solution (final concentration typically 100 nM in the 5 μl of reaction volume) in aqueous assay buffer [50 mM HEPES pH 7.5, 50 mM sodium chloride (NaCl); 50 mM potassium fluoride (KF); 0.25 mM CHAPS and 0.05% serum albumin (BSA)] to the substances in the test plate. This was followed by a 10-minute incubation step at 22° C. for the pre-equilibration of putative complexes between BRD4(2) and the substances.
# The mixture was then incubated in the dark at 22° C. for one hour and then at 4° C. for at least 3 hours and for no longer than overnight. The formation of BRD4(2)/Ac-H4 complexes was determined by the measurement of the resonance energy transfer from the streptavidin-Eu chelate to the anti-6His-XL665 antibody present in the reaction. For this purpose, the fluorescence emission was measured at 620 nm and 665 nm after excitation at 330-350 nm in a TR-FRET measuring instrument, for example a Rubystar or Pherastar (both from BMG Lab Technologies, Offenburg, Germany) or a Viewlux (Perkin-Elmer). The ratio of the emissions at 665 nm and at 622 nm was taken as an indicator of the amount of BRD4(2)/Ac-H4 complexes formed.
# The data (ratios) obtained were normalized, with 0% inhibition corresponding to the mean from the measurements for a set of controls (typically 32 data points) in which all the reagents were present. In these, in place of test substances, 50 nl of DMSO (100%) were used Inhibition of 100% corresponded to the mean from the measurements for a set of controls (typically 32 data points) in which all the reagents except BRD4(2) were present. The IC50 was determined by regression analysis based on a 4-parameter equation (minimum, maximum, IC50, Hill; Y=max+(min−max)/(1+(X/IC50)Hill)).
SMILES,IC50 [1] [µM],IC50 [2] [µM]
"COc1ccc(CN2c3cc(Nc4ccc(C(=O)N5CC6(COC6)C5)cc4)ccc3N(C)C(=O)[C@H]2C)cc1 [Example 20, (3R)-4-(4-methoxybenzyl)-1,3-dimethyl-6-{[4-(2-oxa-6-azaspiro[3.3]hept-6-ylcarbonyl)phenyl]amino}-3,4-dihydroquinoxalin-2(1H)-one]",0.256,0.043
"COc1ccc(CN2c3cc(Nc4ccc(C(=O)NCCN5CCN(C)CC5)cc4)ccc3N(C)C(=O)[C@H]2C)cc1 [Example 21, 4-{[(3R)-4-(4-methoxybenzyl)-1,3-dimethyl-2-oxo-1,2,3,4-tetrahydroquinoxalin-6-yl]amino}-N-[2-(4-methylpiperazin-1-yl)ethyl]benzamide]",0.403,0.054
"COc1ccc(CN2c3cc(Nc4ccc(C(=O)N5CCN(C(C)C)CC5)cc4)ccc3N(C)C(=O)[C@H]2C)cc1 [Example 22, (3R)-4-(4-methoxybenzyl)-1,3-dimethyl-6-[(4-{[4-(propan-2-yl)piperazin-1-yl]carbonyl}phenyl)amino]-3,4-dihydroquinoxalin-2(1H)-one]",0.522,0.086
"C[C@@H]1C(=O)N(C)c2ccc(Nc3ccc(C(=O)NC4CCN(C)CC4)cc3)cc2N1C1CCCCCC1 [Example 23, 4-{[(3R)-4-cycloheptyl-1,3-dimethyl-2-oxo-1,2,3,4-tetrahydroquinoxalin-6-yl]amino}-N-(1-methylpiperidin-4-yl)benzamide]",1.96,0.152
"C[C@@H]1C(=O)N(C)c2ccc(Nc3ccc(C(=O)N4CCOCC4)cc3)cc2N1C1CCCCCC1 [Example 24, (3R)-4-cycloheptyl-1,3-dimethyl-6-{[4-(morpholin-4-ylcarbonyl)phenyl]amino}-3,4-dihydroquinoxalin-2(1H)-one]",0.732,0.102
"C[C@@H]1C(=O)N(C)c2ccc(Nc3ccc(C(=O)NC4CCN(C)CC4)cc3)cc2N1C1CCOCC1 [Example 26, 4-{[(3R)-1,3-dimethyl-2-oxo-4-(tetrahydro-2H-pyran-4-yl)-1,2,3,4-tetrahydroquinoxalin-6-yl]amino}-N-(1-methylpiperidin-4-yl)benzamide]",4.01,0.391
"C[C@@H]1C(=O)N(C)c2ccc(Nc3ccc(C(=O)N4CCOCC4)cc3)cc2N1C1CCOCC1 [Example 27, (3R)-1,3-dimethyl-6-{[4-(morpholin-4-ylcarbonyl)phenyl]amino}-4-(tetrahydro-2H-pyran-4-yl)-3,4-dihydroquinoxalin-2(1H)-one]",2.49,0.419
"C[C@@H]1C(=O)N(C)c2ccc(Nc3ccc(C(=O)NCC4COC4)cc3)cc2N1C1CCOCC1 [Example 28, 4-{[(3R)-1,3-dimethyl-2-oxo-4-(tetrahydro-2H-pyran-4-yl)-1,2,3,4-tetrahydroquinoxalin-6-yl]amino}-N-(oxetan-3-ylmethyl)benzamide]",2.83,0.513
C[C@@H]1C(=O)N(C)c2ccc(Nc3ccc(C(=O)N4CC5(COC5)C4)cc3)cc2N1C1CCOCC1 [Example 29],2.71,0.158
"C[C@@H]1C(=O)N(C)c2ccc(Nc3ccc(C(=O)NCCN4CCN(C)CC4)cc3)cc2N1C1CCOCC1 [Example 30, 4-{[(3R)-1,3-dimethyl-2-oxo-4-(tetrahydro-2H-pyran-4-yl)-1,2,3,4-tetrahydroquinoxalin-6-yl]amino}-N-[2-(4-methylpiperazin-1-yl)ethyl]benzamide]",2.68,0.351
"C[C@@H]1C(=O)N(C)c2ccc(Nc3ccc(C(=O)N4CC5(CCS5(=O)=O)C4)cc3)cc2N1C1CCOCC1 [Example 31, (3R)-6-({4-[(1,1-dioxido-1-thia-6-azaspiro[3.3]hept-6-yl)carbonyl]phenyl}amino)-1,3-dimethyl-4-(tetrahydro-2H-pyran-4-yl)-3,4-dihydroquinoxalin-2(1H)-one]",3.24,0.126
"CC(=O)N1CCC(NC(=O)c2ccc(Nc3ccc4c(c3)N(C3CCOCC3)[C@H](C)C(=O)N4C)cc2)CC1 [Example 32, N-(1-acetylpiperidin-4-yl)-4-{[(3R)-1,3-dimethyl-2-oxo-4-(tetrahydro-2H-pyran-4-yl)-1,2,3,4-tetrahydroquinoxalin-6-yl]amino}benzamide]",6.42,0.482
CC(C)N1CCN(C(=O)c2ccc(Nc3ccc4c(c3)N(C3CCOCC3)[C@H](C)C(=O)N4C)cc2)CC1 [Example 33],1.75,0.383
"C[C@@H]1C(=O)N(C)c2ccc(Nc3ccc(C(=O)NC4CN(C)C4)cc3)cc2N1C1CCOCC1 [Example 34, 4-{[(3R)-1,3-dimethyl-2-oxo-4-(tetrahydro-2H-pyran-4-yl)-1,2,3,4-tetrahydroquinoxalin-6-yl]amino}-N-(1-methylazetidin-3-yl)benzamide]",3.57,0.238
"C[C@@H]1C(=O)N(C)c2ccc(Nc3ccc(C(=O)NC4CC4)cc3)cc2N1C1CCOCC1 [Example 35, N-cyclopropyl-4-{[(3R)-1,3-dimethyl-2-oxo-4-(tetrahydro-2H-pyran-4-yl)-1,2,3,4-tetrahydroquinoxalin-6-yl]amino}benzamide]",2.4,0.217
"COc1cc(C(=O)NC2CCN(C)CC2)ccc1Nc1ccc2c(c1)N(C1CCOCC1)[C@H](C)C(=O)N2C [Example 36, 4-{[(3R)-1,3-dimethyl-2-oxo-4-(tetrahydro-2H-pyran-4-yl)-1,2,3,4-tetrahydroquinoxalin-6-yl]amino}-3-methoxy-N-(1-methylpiperidin-4-yl)benzamide]",2.09,0.441
"COc1cc(C(=O)NC2CCC(N3CCN(CC4CC4)CC3)CC2)ccc1Nc1ccc2c(c1)N(C1CCOCC1)[C@H](C)C(=O)N2C (stereo partly drawn) [Example 37, N-{4-[4-(cyclopropylmethyl)piperazin-1-yl]cyclohexyl}-4-{[(3R)-1,3-dimethyl-2-oxo-4-(tetrahydro-2H-pyran-4-yl)-1,2,3,4-tetrahydroquinoxalin-6-yl]amino}-3-methoxybenzamide]",1.51,0.41
"COc1cc(C(=O)N2CCN(C)CC2)ccc1Nc1ccc2c(c1)N(C1CCOCC1)[C@H](C)C(=O)N2C [Example 38, (3R)-6-({2-methoxy-4-[(4-methylpiperazin-1-yl)carbonyl]phenyl}amino)-1,3-dimethyl-4-(tetrahydro-2H-pyran-4-yl)-3,4-dihydroquinoxalin-2(1H)-one]",1.78,0.382
"COc1ccc(CN2c3cc(Nc4ccc(S(=O)(=O)N(C)C)cc4)ccc3N(C)C(=O)[C@H]2C)cc1 [Example 41, 4-{[(3R)-4-(4-methoxybenzyl)-1,3-dimethyl-2-oxo-1,2,3,4-tetrahydroquinoxalin-6-yl]amino}-N,N-dimethylbenzenesulphonamide]",0.175,0.048
